Patent US9249128B2 (priority 2010, dated 2016)
Where two headings read alike, the source gives them in different places.

Experiments:
Format in all cases: biochemical
[1] = molecular target: T1, HSL (Mus musculus, UniProt P54310); test: Competitive ABPP of HSL in rosiglitazone-differentiated 3T3-10T1/2 adipocyte proteome
T1 construct: ABPP analysis of HSL from a rosiglitazone-differentiated 3T3-10T1/2 adipocyte proteome; endogenous in cells; host or cells: rosiglitazone-differentiated 3T3-10T1/2 adipocytes
T1 sequence (P54310 1-759): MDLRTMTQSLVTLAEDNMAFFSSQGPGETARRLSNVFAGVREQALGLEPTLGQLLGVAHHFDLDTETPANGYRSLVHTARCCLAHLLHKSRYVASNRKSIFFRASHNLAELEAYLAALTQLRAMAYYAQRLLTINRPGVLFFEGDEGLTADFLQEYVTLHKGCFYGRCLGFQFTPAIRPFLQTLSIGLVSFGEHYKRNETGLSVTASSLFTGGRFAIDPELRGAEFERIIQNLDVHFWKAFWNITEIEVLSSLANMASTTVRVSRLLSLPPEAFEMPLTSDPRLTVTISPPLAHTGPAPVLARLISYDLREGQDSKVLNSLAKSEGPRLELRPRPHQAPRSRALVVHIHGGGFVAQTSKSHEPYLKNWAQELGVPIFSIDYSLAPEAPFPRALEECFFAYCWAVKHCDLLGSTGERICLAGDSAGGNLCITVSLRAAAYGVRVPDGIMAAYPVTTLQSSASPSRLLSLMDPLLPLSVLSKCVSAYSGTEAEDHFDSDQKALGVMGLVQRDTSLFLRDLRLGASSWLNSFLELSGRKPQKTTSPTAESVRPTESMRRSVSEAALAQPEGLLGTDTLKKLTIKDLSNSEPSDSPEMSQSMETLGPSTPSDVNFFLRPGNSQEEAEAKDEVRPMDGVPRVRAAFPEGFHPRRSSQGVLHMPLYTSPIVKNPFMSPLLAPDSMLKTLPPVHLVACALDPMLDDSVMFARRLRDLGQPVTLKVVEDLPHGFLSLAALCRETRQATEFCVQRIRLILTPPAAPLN
Description: (§1) For ABPP experiments, cell lysate and tissue proteomes were treated with 1 μM FP-rhodamine for 30 min at room temperature (50 μL total reaction volume) as described previously (Nomura et al., 2010). Reactions were quenched with one volume of standard 4×SDS/PAGE loading buffer (reducing), separated by SDS/PAGE (10% acrylamide), and visualized in-gel with a Hitachi FMBio IIe flatbed fluorescence scanner (MiraiBio). Inhibitors were preincubated prior (30 min or 4 h at 37° C. in vitro or in situ, respectively) to the addition of FP-rhodamine.

[2] = molecular target: T2, KIAA1363 (Mus musculus, UniProt Q8BLF1); test: Gel-based competitive ABPP of KIAA1363 in mouse brain membrane proteome (FP-rhodamine)
T2 construct: ABPP analysis of KIAA1363 activity in mouse brain membrane proteome; from tissue; host or cells: mouse brain (membrane fraction)
T2 sequence (Q8BLF1 1-408): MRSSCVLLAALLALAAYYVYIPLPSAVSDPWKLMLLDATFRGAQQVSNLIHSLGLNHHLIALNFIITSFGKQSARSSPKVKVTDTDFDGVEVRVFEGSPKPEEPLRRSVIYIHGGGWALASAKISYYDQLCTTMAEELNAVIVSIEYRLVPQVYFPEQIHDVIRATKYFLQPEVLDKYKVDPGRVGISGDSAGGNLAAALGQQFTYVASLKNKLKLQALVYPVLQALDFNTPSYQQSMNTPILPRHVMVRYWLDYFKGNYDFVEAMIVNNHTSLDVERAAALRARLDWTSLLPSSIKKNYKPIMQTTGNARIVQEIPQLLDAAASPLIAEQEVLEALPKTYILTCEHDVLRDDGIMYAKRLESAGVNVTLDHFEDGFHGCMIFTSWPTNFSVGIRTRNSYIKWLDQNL
Description: In various embodiments, the invention provides a method of inhibiting a serine hydrolase, comprising contacting the hydrolase with a compound of formula (I), e.g., a compound selected from set of compounds shown in Table 1, below. […] IC50 values were derived from ABPP analysis of KIAA1363 activity in mouse brain membrane proteome and are averages of three replicates. Inhibitors were added to the proteome for 30 min before addition of FP-rhodamine (1 μM, 30 min).
Tissues were Dounce-homogenized in PBS, pH 7.4, followed by a low-speed spin (1,400 g, 5 min) to remove debris. The supernatant was then subjected to centrifugation (100,000×g, 45 min) to provide the cytosolic fraction in the supernatant and the unsoluble fraction as a pellet. The pellet was washed and resuspended in PBS buffer by sonication. Total protein concentration in each fraction was determined using a protein assay kit (Bio-Rad). Samples were stored at −80° C. until use.
as §1

[3] = molecular target: T3, AChE (Mus musculus, UniProt P21836); test: AChE activity assay with acetylthiocholine in mouse brain proteome; conditions: for Cross-reactivity with AChE: acetylthiocholine hydrolysis in mouse brain membrane proteome; for IC50: mouse brain proteome, substrate acetylthiocholine, n=3, read-out: IC50 for AChE (FIG. 2D)
T3 construct: 20 μg of cell lysate or mouse brain membrane proteome; from tissue; host or cells: mouse brain (membrane proteome)
T3 sequence (P21836 32-614): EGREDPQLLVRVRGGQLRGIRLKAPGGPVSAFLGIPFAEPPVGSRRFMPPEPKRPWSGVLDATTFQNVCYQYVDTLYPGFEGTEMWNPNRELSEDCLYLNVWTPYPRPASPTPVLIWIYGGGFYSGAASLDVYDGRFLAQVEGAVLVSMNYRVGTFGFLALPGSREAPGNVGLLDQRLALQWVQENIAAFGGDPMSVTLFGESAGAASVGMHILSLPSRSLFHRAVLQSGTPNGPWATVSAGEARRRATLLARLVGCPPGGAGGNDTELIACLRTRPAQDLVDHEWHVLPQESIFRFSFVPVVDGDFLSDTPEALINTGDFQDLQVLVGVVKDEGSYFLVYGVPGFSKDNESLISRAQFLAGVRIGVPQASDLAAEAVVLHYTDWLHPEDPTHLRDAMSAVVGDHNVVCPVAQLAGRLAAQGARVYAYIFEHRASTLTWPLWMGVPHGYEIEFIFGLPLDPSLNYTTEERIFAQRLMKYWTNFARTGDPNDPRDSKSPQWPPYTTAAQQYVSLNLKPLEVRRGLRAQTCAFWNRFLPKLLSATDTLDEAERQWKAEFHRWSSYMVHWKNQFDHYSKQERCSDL
Description: AChE activity was measured using a method similar to that described previously (Ellman et al., 1961). Briefly, 50 μL of 10 mM acetylthiocholine was added to 200 μL of PBS containing 2 mM DTNB and 20 μg of cell lysate or mouse brain membrane proteome. Absorbance was measured at 412 nm over 5 min, and the rate of product accumulation was calculated from the slope of the absorbance over time. For assays involving preincubation with inhibitors, the reactions were prepared without acetylthiocholine and JW480 was incubated at the indicated concentration for 30 min at 37° C. Acetylthiocholine was then added and the assay was carried out exactly as described above.

[4] = competitive ABPP in mouse brain proteome, n=3, read-out: IC50 for KIAA1363 (FIG. 2D)
[5] = mouse brain KIAA1363, read-out: IC50 for KIAA1363
[6] = mouse brain membrane proteome, inhibitor 30 min before FP-rhodamine (1 μM, 30 min), averages of three replicates, read-out: IC50 (KIAA1363)

SMILES	Cross-reactivity with HSL [1]	IC50 [2, 4] [nM]	IC50 [2, 5] [nM]	IC50 [2, 6] [nM]	IC50 ([2]; screened against KIAA1363, Table 1, read-out: IC50 values of less than 1 micromolar) [nM]	Cross-reactivity with AChE [3]	IC50 [3] [nM]	IC50 ([2]; screened against KIAA1363, Table 1, read-out: IC50 values of around 10 nanomolar (most potent)) [nM]
COc1ccc(CNC(=O)Oc2cccc3c2OC(C)(C)C3)cc1 [JW148, 2,2-dimethyl-2,3-dihydrobenzofuran-7-yl 4-methoxybenzylcarbamate]	cross-reactivity	200	~200	117	< 1000	cross-reactivity	1000	
CC(C)c1ccccc1OC(=O)NCCc1ccc2ccccc2c1 [JW480, 2-isopropylphenyl (2-(naphthalen-2-yl)ethyl)carbamate]	negligible cross-reactivity	20	20	13.9		negligible cross-reactivity	> 100000	~10
